≈ marks a conversion by molar mass, not a printed value. Read-outs that look alike come from different tables or passages of the source.
Key:
[1] = biological target: Leucyl-tRNA synthetase (LeuRS) (Escherichia coli (strain K12), UniProt P07813); assay: Leucyl-tRNA synthetase enzyme inhibition (AMP-Glo; single point % inhibition at 100 μM and IC50); format: biochemical
[2] = Human cell viability / cytotoxicity (CellTiter-Glo, 24 hours); format: cell-based; conditions: human, HepG2 cells (ATCC HB-8065); HepG2 ATCC HB-8065, 24 hours; read-out: Cytotoxicity in HepG2 ATCC HB-8065 Cell Line, IC50
Experimental: Study 3—Human Cell Viability
Compounds were assessed for potential non-specific cytotoxic effects against a human hepatic cell line (HepG2 ATCC HB-8065). 96-well plates were seeded with HepG2 cells in concentration of 15,000 cells per well in 100 μL of MEM growth media completed with 1% NEAA and 1% sodium pyruvate. Border wells were filled with 100 μL of sterile PBS. Two days upon cells incubation, the compounds were added. Compound dilutions were prepared in 96-well V-bottom plate in pure DMSO. Growth media from 5 plates were aspirated and replaced with 98.7 μL of fresh growth media. 1.28 μL of compounds prepared in V-bottom plates were transferred with multichannel pipette into test plates (78.1× dilution). Final DMSO concentration was 1.28% per well. In control wells, 1.28 μL of DMSO was added in 98.7 μL of media. Compounds were tested in duplicates. Cells were incubated with compounds for 24 hours when cell viability was assessed by measuring ATP levels. ATP levels were measured by adding 50 μL of CellTiter-Glo reagent to each well and after 5 minutes of incubation luminescence was measured with SpectraMax i3. The potential effect of tested compounds on cell viability was determined by comparing the signal obtained in presence of different concentrations of the compounds with those obtained in the presence of DMSO only. The potential effects were then calculated and presented as IC50 values (μg/mL).

[3] = test system: bacteria (ATCC reference strains); assay: Antibacterial activity, MIC by broth micro-dilution (CLSI)
[4] = E. coli LeuRS, read-out: Enzyme Inhibition - IC50, E. coli LeuRS
[5] = Acinetobacter baumannii, read-out: Antibacterial Activity (MIC), E = A. baumannii B1931
[6] = Enterobacter cloacae, read-out: Antibacterial Activity (MIC), B = Enterobacter cloacae B1966
[7] = Escherichia coli, ATCC25922, read-out: Antibacterial Activity (MIC), A = E. coli ATCC 25922
[8] = Haemophilus influenzae, ATCC49247, read-out: Antibacterial Activity (MIC), F = H. influenzae ATCC 49247
[9] = Klebsiella pneumoniae, ATCC700603, read-out: Antibacterial Activity (MIC), C = K. pneumoniae ATCC 700603
[10] = Pseudomonas aeruginosa, ATCC27853, read-out: Antibacterial Activity (MIC), D = P. aeruginosa ATCC 27853
[11] = Escherichia coli, BAA2469, read-out: Antibacterial Activity (MIC), G = E. coli BAA-2469

Chain of Leucyl-tRNA synthetase (LeuRS) (P07813 whole entry, looked up): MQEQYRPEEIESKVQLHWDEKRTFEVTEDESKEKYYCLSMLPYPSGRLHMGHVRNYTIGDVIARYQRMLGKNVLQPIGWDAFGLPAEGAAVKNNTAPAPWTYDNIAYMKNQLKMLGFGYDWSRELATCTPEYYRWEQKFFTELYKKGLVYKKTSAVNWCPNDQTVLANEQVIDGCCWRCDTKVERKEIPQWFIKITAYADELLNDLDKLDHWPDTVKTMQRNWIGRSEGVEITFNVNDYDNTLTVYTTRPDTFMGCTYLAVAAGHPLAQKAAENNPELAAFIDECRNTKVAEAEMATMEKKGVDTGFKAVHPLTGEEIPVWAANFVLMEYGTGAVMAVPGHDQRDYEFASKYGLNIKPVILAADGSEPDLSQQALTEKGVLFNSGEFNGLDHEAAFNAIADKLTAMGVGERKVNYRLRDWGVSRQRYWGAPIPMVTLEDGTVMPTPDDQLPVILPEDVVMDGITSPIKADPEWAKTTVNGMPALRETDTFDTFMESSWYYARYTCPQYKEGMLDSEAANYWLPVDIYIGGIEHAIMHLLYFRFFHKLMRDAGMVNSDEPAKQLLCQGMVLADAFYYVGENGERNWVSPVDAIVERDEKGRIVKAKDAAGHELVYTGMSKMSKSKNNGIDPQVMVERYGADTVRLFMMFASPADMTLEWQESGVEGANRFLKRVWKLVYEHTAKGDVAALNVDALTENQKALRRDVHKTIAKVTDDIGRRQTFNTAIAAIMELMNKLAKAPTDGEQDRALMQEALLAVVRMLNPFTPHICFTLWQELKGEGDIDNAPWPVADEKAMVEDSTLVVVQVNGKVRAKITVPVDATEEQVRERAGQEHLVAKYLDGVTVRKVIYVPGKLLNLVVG

Structure (SMILES): CC(C)C[C@H](N)C(=O)N=[S@@](N)(=O)c1ccc(Cl)s1 [ANASIA-009-2]
- IC50 [1, 4]: 149 nM
- IC50 at 24 h [2]: > 64 µg/mL
- MIC [3, 5]: 64 µg/mL (≈ 207 µM)
- MIC [3, 6]: 32 µg/mL (≈ 103 µM)
- MIC [3, 7]: 4 µg/mL (≈ 12.9 µM)
- MIC [3, 8]: 8 µg/mL (≈ 25.8 µM)
- MIC [3, 9]: 32 µg/mL (≈ 103 µM)
- MIC [3, 10]: > 64 µg/mL

Structure (SMILES): CC(C)C[C@H](N)C(=O)N=[S@](N)(=O)c1sccc1Cl.Cl [ANASIA-012-1]
- IC50 [1]: 87.4 nM
- IC50 at 24 h [2]: > 64 µg/mL
- MIC [3, 5]: 64 µg/mL
- MIC [3, 6]: 32 µg/mL
- MIC [3, 7]: 4 µg/mL
- MIC [3, 11]: 16 µg/mL
- MIC [3, 8]: 8 µg/mL
- MIC [3, 9]: 64 µg/mL
- MIC [3, 10]: > 64 µg/mL

Structure (SMILES): CC(C)C[C@H](N)C(=O)N=S(N)(=O)c1sccc1Cl (stereo partly shown) [ANASIA-012]
- IC50 [1, 4]: 155 nM
- IC50 at 24 h [2]: > 64 µg/mL
- MIC [3, 5]: > 64 µg/mL
- MIC [3, 6]: 64 µg/mL (≈ 207 µM)
- MIC [3, 7]: 8 µg/mL (≈ 25.8 µM)
- MIC [3, 11]: 32 µg/mL (≈ 103 µM)
- MIC [3, 8]: 16 µg/mL (≈ 51.6 µM)
- MIC [3, 9]: > 64 µg/mL
- MIC [3, 10]: > 64 µg/mL

Structure (SMILES): Cc1ccc([S@@](N)(=O)=NC(=O)[C@@H](N)CC(C)C)s1.Cl [ANASIA-014-1]
- IC50 [1]: 81.1 nM
- IC50 at 24 h [2]: > 64 µg/mL
- MIC [3, 5]: 64 µg/mL
- MIC [3, 6]: 16 µg/mL
- MIC [3, 7]: 4 µg/mL
- MIC [3, 8]: 4 µg/mL
- MIC [3, 9]: 64 µg/mL
- MIC [3, 10]: > 64 µg/mL

Structure (SMILES): Cc1ccsc1[S@@](N)(=O)=NC(=O)[C@@H](N)CC(C)C.Cl [ANASIA-015-1]
- IC50 [1]: 56.5 nM
- IC50 at 24 h [2]: > 64 µg/mL
- MIC [3, 5]: 64 µg/mL
- MIC [3, 6]: 16 µg/mL
- MIC [3, 7]: 2 µg/mL
- MIC [3, 11]: 5.66 µg/mL
- MIC [3, 8]: 8 µg/mL
- MIC [3, 9]: 16 µg/mL
- MIC [3, 10]: 64 µg/mL

Structure (SMILES): CC(C)C[C@H](N)C(=O)N=S(N)(=O)c1ccc(C(F)F)s1 (stereo partly shown) [ANASIA-017]
- IC50 [1]: 145 nM
- IC50 at 24 h [2]: > 64 µg/mL
- MIC [3, 5]: > 64 µg/mL
- MIC [3, 6]: > 64 µg/mL
- MIC [3, 7]: 16 µg/mL (≈ 49.2 µM)
- MIC [3, 8]: 8 µg/mL (≈ 24.6 µM)
- MIC [3, 9]: > 64 µg/mL
- MIC [3, 10]: > 64 µg/mL

Structure (SMILES): CC(C)C[C@H](N)C(=O)N=[S@](N)(=O)c1cc(F)ccc1F.Cl [ANASIA-024-1]
- IC50 [1]: 141 nM
- IC50 at 24 h [2]: > 64 µg/mL
- MIC [3, 5]: > 64 µg/mL
- MIC [3, 6]: > 64 µg/mL
- MIC [3, 7]: 16 µg/mL
- MIC [3, 8]: 16 µg/mL
- MIC [3, 9]: > 64 µg/mL
- MIC [3, 10]: > 64 µg/mL

Structure (SMILES): CC(C)C[C@H](N)C(=O)N=[S@](N)(=O)c1cccc(C#N)c1.Cl [ANASIA-041-1]
- IC50 [1]: 17.7 nM
- IC50 at 24 h [2]: > 64 µg/mL
- MIC [3, 5]: > 64 µg/mL
- MIC [3, 6]: > 64 µg/mL
- MIC [3, 7]: 5.66 µg/mL
- MIC [3, 11]: 64 µg/mL
- MIC [3, 8]: 2.83 µg/mL
- MIC [3, 9]: > 64 µg/mL
- MIC [3, 10]: > 64 µg/mL

Structure (SMILES): CC(C)C[C@H](N)C(=O)N=[S@](N)(=O)c1cccc(C(C)C)c1.Cl [ANASIA-043-1]
- IC50 [1]: 112 nM
- IC50 at 24 h [2]: > 64 µg/mL
- MIC [3, 5]: > 64 µg/mL
- MIC [3, 6]: > 64 µg/mL
- MIC [3, 7]: > 64 µg/mL
- MIC [3, 8]: 45.3 µg/mL
- MIC [3, 9]: > 64 µg/mL
- MIC [3, 10]: > 64 µg/mL

Structure (SMILES): CC(C)C[C@H](N)C(=O)N=[S@](N)(=O)c1cccc(Br)c1.Cl [ANASIA-044-1]
- IC50 [1]: 71 nM
- IC50 at 24 h [2]: > 64 µg/mL
- MIC [3, 5]: 64 µg/mL
- MIC [3, 6]: 16 µg/mL
- MIC [3, 7]: 2 µg/mL
- MIC [3, 8]: 2 µg/mL
- MIC [3, 9]: 64 µg/mL
- MIC [3, 10]: > 64 µg/mL

Structure (SMILES): CC(C)C[C@H](N)C(=O)N=[S@](N)(=O)c1cccc(Cl)c1Cl.Cl [ANASIA-046-1]
- IC50 [1]: 960 nM
- IC50 at 24 h [2]: > 64 µg/mL
- MIC [3, 5]: > 64 µg/mL
- MIC [3, 6]: > 64 µg/mL
- MIC [3, 7]: > 64 µg/mL
- MIC [3, 8]: 64 µg/mL
- MIC [3, 9]: > 64 µg/mL
- MIC [3, 10]: > 64 µg/mL

Structure (SMILES): CC(C)C[C@H](N)C(=O)N=[S@](N)(=O)c1cccc(Oc2ccc(Cl)cc2)c1.Cl [ANASIA-047-1]
- IC50 [1]: 76.4 nM
- IC50 at 24 h [2]: 46.5 µg/mL
- MIC [3, 5]: > 64 µg/mL
- MIC [3, 6]: > 64 µg/mL
- MIC [3, 7]: > 64 µg/mL
- MIC [3, 8]: 64 µg/mL
- MIC [3, 9]: > 64 µg/mL
- MIC [3, 10]: > 64 µg/mL

Reference: US12247004B2, “2-amino-N-(amino-oxo-aryl-lambda6-sulfanylidene)acetamide compounds and their therapeutic use” (Oxford Drug Design Limited, priority 2019, dated 2025)
